ChEMBL document CHEMBL4049411, “Rational Design, Synthesis, and Biological Evaluation of Heterocyclic Quinolones Targeting the Respiratory Chain of Mycobacterium tuberculosis” (J Med Chem, 2017)
Converted amounts (≈) assume the structure as drawn.

Tests used:
[1] = Intrinsic clearance in human microsomes; type: ADME, Microsome; conditions: read-out: CLH
[2] = Retention time of compound by HPLC anlaysis
[3] = target: Voltage-gated inwardly rectifying potassium channel KCNH2 (Homo sapiens, UniProt Q12809); experiment: Inhibition of human ERG
Chain of Voltage-gated inwardly rectifying potassium channel KCNH2 (Q12809 whole entry): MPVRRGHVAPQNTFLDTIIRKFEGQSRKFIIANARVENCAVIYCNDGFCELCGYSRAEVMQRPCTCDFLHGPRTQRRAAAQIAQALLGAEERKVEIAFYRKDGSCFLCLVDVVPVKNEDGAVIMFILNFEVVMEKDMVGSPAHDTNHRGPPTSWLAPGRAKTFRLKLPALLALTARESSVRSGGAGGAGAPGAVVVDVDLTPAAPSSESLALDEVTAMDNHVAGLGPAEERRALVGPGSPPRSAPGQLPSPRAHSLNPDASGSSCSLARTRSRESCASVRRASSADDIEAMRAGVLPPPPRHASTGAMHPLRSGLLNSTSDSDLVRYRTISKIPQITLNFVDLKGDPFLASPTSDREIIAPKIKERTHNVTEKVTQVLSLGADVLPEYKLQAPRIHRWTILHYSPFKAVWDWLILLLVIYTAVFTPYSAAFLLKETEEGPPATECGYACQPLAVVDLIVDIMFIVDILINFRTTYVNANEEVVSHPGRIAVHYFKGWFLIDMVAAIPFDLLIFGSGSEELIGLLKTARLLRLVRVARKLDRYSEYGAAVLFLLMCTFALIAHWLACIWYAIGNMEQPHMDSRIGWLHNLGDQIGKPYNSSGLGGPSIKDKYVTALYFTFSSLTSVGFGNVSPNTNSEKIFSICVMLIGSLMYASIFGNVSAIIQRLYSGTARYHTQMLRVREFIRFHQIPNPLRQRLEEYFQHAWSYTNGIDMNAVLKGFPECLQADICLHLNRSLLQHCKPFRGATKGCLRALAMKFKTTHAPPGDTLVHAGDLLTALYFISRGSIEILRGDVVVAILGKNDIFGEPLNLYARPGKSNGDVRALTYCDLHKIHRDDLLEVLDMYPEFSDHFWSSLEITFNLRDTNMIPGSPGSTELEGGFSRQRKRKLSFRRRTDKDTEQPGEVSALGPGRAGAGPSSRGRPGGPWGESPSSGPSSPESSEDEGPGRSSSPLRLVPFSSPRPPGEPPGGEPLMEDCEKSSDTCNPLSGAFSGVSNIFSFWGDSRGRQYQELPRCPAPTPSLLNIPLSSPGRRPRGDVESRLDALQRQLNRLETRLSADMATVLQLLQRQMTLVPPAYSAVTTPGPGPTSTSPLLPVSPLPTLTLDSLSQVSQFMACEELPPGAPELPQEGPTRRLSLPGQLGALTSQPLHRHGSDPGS

CYP2C9 = CYP2C9 (Homo sapiens, UniProt P11712); experiment: Inhibition of human microsomal CYP2C9 expressed in insect cells at 10 uM using OOMR as substrate measured every minute for 1 hr by fluorescence-based assay; type: ADME; conditions: probe OOMR
Chain of CYP2C9 (P11712 whole entry): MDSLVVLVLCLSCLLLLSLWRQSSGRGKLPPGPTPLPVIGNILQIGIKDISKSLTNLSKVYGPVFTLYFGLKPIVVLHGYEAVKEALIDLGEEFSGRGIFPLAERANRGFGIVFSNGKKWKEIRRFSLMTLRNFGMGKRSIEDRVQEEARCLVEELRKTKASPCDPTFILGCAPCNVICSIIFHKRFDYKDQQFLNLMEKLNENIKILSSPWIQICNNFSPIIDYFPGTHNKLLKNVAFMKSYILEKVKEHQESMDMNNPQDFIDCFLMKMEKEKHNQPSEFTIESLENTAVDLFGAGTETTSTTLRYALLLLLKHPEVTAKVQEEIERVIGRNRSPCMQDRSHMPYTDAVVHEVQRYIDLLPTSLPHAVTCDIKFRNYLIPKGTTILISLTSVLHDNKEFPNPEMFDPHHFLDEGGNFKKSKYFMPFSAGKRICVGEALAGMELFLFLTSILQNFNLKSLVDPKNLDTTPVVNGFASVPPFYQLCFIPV

[4] = Solubility of compound at pH 7.4; type: physicochemical; conditions: buffer
[5] = Half life in rat plasma at 1 uM measured up to 3 hrs by LC-MS/MS analysis; type: ADME, cell-free
[6] = Apparent permeability across basolateral to apical side in human Caco2 cells at 5 uM measured up to 180 mins by LC-MS/MS analysis; type: ADME, cell-based; conditions: Caco-2
CYP2C8 = target: T1, CYP2C8 (Homo sapiens, UniProt P10632); experiment: Inhibition of human microsomal CYP2C8 expressed in insect cells at 10 uM using DBOMF as substrate measured every minute for 1 hr by fluorescence-based assay; type: ADME; conditions: probe DBOMF
T1 sequence (P10632 whole entry): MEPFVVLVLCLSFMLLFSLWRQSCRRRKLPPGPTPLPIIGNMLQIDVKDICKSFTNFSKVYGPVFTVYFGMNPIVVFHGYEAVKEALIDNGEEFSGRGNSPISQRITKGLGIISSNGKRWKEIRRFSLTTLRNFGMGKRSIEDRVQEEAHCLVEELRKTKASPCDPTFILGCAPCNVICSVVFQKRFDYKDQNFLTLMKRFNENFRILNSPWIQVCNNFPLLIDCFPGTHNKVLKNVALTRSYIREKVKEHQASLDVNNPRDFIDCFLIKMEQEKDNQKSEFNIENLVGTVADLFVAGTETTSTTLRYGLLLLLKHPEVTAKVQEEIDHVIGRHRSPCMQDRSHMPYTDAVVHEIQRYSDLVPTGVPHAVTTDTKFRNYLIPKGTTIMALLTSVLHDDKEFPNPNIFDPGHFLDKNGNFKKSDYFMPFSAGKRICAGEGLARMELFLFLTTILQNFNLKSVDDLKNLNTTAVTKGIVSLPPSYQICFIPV

[7] = Intrinsic clearance in mouse microsomes; type: ADME, Microsome; conditions: read-out: CLH
[8] = Solubility of compound in Middlebrook 7H9 broth media containing 10% albumin-dextrose-catalase solution; type: physicochemical
CYP3A5 = CYP3A5 (Homo sapiens, UniProt P20815); experiment: Inhibition of human microsomal CYP3A5 expressed in insect cells at 10 uM using BOMCC as substrate measured every minute for 1 hr by fluorescence-based assay; type: ADME; conditions: probe BOMCC
Chain of CYP3A5 (P20815 whole entry): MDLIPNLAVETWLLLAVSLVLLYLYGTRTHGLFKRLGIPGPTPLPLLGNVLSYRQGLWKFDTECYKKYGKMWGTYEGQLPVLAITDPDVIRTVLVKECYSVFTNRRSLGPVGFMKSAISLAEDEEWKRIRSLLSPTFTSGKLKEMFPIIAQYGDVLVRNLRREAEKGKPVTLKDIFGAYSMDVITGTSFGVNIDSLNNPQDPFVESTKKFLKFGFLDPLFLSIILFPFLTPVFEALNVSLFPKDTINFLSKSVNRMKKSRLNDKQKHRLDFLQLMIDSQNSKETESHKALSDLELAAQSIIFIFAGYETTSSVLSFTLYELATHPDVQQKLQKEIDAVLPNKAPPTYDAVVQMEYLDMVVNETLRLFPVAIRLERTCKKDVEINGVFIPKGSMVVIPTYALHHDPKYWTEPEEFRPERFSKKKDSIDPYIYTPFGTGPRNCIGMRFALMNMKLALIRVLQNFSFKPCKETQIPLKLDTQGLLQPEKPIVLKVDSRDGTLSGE

[9] = Apparent permeability across apical to basolateral side in human Caco2 cells at 5 uM measured up to 180 mins by LC-MS/MS analysis; type: ADME, cell-based; conditions: Caco-2
[10] = Solubility of compound at pH 1; type: physicochemical; conditions: buffer
[11] = Drug level in Sprague-Dawley rat urine treated with 2-(4-(3,3-Difluoropyrrolidin-1-yl)phenyl)-5,7-difluoro-3-methylquinolin-4-yl acetate at 50 mg/kg, po via gavage up to 9 hrs by HPLC analysis; type: ADME, organism-based; conditions: in vivo
[12] = Intrinsic clearance in rat hepatocytes assessed per million cells; type: ADME, cell-based, Hepatocyte; conditions: read-out: CLH
Salmonella typhimurium = experiment: Mutagenicity in Salmonella typhimurium by Ames test; type: toxicity; conditions: salmonella enterica subsp. enterica serovar typhimurium
[13] = Intrinsic clearance in rat microsomes; type: ADME, Microsome; conditions: read-out: CLH
[14] = Drug level in Sprague-Dawley rat bile treated with 2-(4-(3,3-Difluoropyrrolidin-1-yl)phenyl)-5,7-difluoro-3-methylquinolin-4-yl acetate at 50 mg/kg, po via gavage up to 9 hrs by HPLC analysis; type: ADME, organism-based; conditions: in vivo
[15] = system: Mycobacterium tuberculosis; experiment: Growth inhibition of dormant Mycobacterium tuberculosis H37Rv incubated for 7 days under anaerobic condition followed incubation under aerobic condition for 7 days by MABA; type: functional; conditions: 168 h
[16] = system: Mycobacterium tuberculosis H37Rv; experiment: (§1) Inhibition of replicating Mycobacterium tuberculosis H37Rv NDH assessed as cell growth inhibition after 7 days by MABA method
[17] = as §1; conditions: 168 h
[18] = Half life in human plasma at 1 uM measured up to 3 hrs by LC-MS/MS analysis; type: ADME, cell-free
HepG2 = experiment: Cytotoxicity against human HepG2 cells after 24 hrs in presence of glucose by MTT assay; type: cell-based; conditions: hepg2, 24 h
[19] = Metabolic stability in mouse liver microsomes assessed as half life for metabolic turnover at 0.1 to 10 uM preincubated for 60 mins in presence of NADPH measured up to 60 mins by mass spectroscopic analysis; type: ADME, microsome
[20] = Metabolic stability in rat liver microsomes assessed as half life for metabolic turnover at 0.1 to 10 uM preincubated for 60 mins in presence of NADPH measured up to 60 mins by mass spectroscopic analysis; type: ADME, microsome
CYP2D6 = CYP2D6 (Homo sapiens, UniProt P10635); experiment: Inhibition of human microsomal CYP2D6 expressed in insect cells at 10 uM using MOBFC as substrate measured every minute for 1 hr by fluorescence-based assay; type: ADME; conditions: probe MOBFC
Chain of CYP2D6 (P10635 whole entry): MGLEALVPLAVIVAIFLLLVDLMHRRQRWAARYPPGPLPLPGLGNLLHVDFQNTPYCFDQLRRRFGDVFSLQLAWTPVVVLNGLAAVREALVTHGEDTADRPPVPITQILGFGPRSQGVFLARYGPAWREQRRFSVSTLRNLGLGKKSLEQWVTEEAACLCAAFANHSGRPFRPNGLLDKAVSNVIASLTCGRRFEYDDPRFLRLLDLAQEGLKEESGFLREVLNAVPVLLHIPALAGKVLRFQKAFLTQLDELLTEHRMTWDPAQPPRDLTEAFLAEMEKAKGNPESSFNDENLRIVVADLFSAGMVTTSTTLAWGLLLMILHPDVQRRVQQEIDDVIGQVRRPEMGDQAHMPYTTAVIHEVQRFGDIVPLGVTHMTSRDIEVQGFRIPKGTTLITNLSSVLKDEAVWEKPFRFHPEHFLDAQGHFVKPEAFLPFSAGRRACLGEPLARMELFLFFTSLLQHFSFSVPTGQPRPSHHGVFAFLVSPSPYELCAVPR

[21] = Aqueous solubility of compound; type: physicochemical; conditions: buffer
[22] = Protein binding in human plasma at 1 uM after 18 hrs by equilibrium dialysis; type: ADME, cell-free; conditions: read-out: PPB (converted)
[23] = Metabolic stability in human liver microsomes assessed as half life for metabolic turnover at 0.1 to 10 uM preincubated for 60 mins in presence of NADPH measured up to 60 mins by mass spectroscopic analysis; type: ADME, microsome
CYP3A4 = CYP3A4 (Homo sapiens, UniProt P08684); experiment: Inhibition of human microsomal CYP3A4 expressed in insect cells at 10 uM using BOMCC as substrate measured every minute for 1 hr by fluorescence-based assay; type: ADME; conditions: probe BOMCC
Chain of CYP3A4 (P08684 whole entry): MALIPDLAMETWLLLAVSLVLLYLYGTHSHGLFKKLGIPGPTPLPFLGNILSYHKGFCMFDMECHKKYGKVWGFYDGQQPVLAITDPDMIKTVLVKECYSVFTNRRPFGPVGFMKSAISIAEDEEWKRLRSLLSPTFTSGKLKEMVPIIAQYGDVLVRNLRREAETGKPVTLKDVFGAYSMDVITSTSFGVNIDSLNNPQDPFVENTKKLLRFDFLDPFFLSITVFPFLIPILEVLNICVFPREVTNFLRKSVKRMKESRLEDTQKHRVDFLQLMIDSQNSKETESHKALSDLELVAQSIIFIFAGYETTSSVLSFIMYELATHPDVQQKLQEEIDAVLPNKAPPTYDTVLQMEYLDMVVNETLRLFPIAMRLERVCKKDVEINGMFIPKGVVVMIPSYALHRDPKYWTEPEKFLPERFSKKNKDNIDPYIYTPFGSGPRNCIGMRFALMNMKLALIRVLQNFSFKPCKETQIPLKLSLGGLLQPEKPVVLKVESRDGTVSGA

Question: With `Cc1c(-c2ccc(N3CCC(F)(F)C3)cc2)[nH]c2cc(F)cc(F)c2c1=O` as the compound, how does the microsomal CLint [1] read?
Answer: 9.52 to 89.7 µL/min/mg

Question: What about the Retention time [2] of the same compound?
Answer: 11.4 min

Question: What about the IC50 [3] of the same compound?
Answer: > 25000 nM

Question: And the inhibition at 1 h, 10 µM (CYP2C9)?
Answer: 0%

Question: What about the solubility [4] of the same compound?
Answer: < 1 µg/mL

Question: What about the half-life at 1 µM [5] of the same compound?
Answer: > 3 h

Question: What about the Papp B→A at 3 h, 5 µM [6] of the same compound?
Answer: 9.8 ×10⁻⁶ cm/s

Question: What about the inhibition at 1 h, 10 µM (CYP2C8) of the same compound?
Answer: 38%

Question: What about the microsomal CLint [7] of the same compound?
Answer: 6.03 µL/min/mg

Question: And the solubility [8]?
Answer: 55 µg/mL (≈ 146 µM)

Question: What about the inhibition at 1 h, 10 µM (CYP3A5) of the same compound?
Answer: 0%

Question: What about the Papp A→B at 3 h, 5 µM [9] of the same compound?
Answer: 10 ×10⁻⁶ cm/s

Question: And the solubility [10]?
Answer: < 1 µg/mL

Question: What about the Drug metabolism [11] of the same compound?
Answer: Metabolite_Detected

Question: What about the hepatocyte CLint [12] of the same compound?
Answer: 52.2 µL/min/1e6 cells

Question: What about the Activity (Salmonella typhimurium) of the same compound?
Answer: Non-Toxic

Question: What about the microsomal CLint [13] of the same compound?
Answer: 11.2 µL/min/mg

Question: What about the Drug metabolism [14] of the same compound?
Answer: Metabolite_Detected

Question: What about the IC90 [15] of the same compound?
Answer: 76 nM

Question: And the IC90 [16]?
Answer: 1100 nM

Question: And the IC50 [17]?
Answer: 525 to 530 nM

Question: What about the half-life at 1 µM [18] of the same compound?
Answer: > 3 h

Question: And the Activity (HepG2)?
Answer: > 100 µM

Question: What about the half-life at up to 10 µM [19] of the same compound?
Answer: 1.92 h

Question: What about the half-life at up to 10 µM [20] of the same compound?
Answer: 1.03 h

Question: And the inhibition at 1 h, 10 µM (CYP2D6)?
Answer: 0%

Question: What about the solubility [21] of the same compound?
Answer: 0.2 µM (≈ 0.0753 µg/mL)

Question: What about the fraction unbound at 18 h, 1 µM [22] of the same compound?
Answer: 0.003 to 0.027

Question: And the half-life at up to 10 µM [23]?
Answer: 1.21 h

Question: What about the inhibition at 1 h, 10 µM (CYP3A4) of the same compound?
Answer: 0%
